Results published in paper PMC3959874 (European journal of dermatology : EJD, 2013).
Like-named read-outs stand apart in the source and are kept apart here.

Columns and labels:
CYP1A2 = CYP1A2 (Homo sapiens, UniProt P05177); assay: Cytochrome P450 enzyme assay; assay type: in vitro ADME; details: human
CYP2C19 = CYP2C19 (Homo sapiens, UniProt P33261); assay: Cytochrome P450 enzyme assay; assay type: in vitro ADME; details: human
CYP2C9 = CYP2C9 (Homo sapiens, UniProt P11712); assay: Cytochrome P450 enzyme assay; assay type: in vitro ADME; details: human
Sequence of CYP2C9 (P11712 whole entry): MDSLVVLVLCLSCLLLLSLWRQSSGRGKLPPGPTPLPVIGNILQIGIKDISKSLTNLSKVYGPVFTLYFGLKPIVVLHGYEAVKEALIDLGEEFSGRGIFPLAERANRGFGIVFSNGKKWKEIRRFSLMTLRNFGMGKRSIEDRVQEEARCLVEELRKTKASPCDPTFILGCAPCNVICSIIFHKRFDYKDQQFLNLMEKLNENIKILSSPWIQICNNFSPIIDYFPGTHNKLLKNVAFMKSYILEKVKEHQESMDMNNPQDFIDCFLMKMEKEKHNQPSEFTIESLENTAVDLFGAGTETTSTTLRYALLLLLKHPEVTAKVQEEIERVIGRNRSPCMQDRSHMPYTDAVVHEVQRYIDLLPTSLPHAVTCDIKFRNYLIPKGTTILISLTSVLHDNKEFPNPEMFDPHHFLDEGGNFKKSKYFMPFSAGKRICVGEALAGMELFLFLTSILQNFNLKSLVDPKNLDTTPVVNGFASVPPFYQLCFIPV

CYP2D6 = CYP2D6 (Homo sapiens, UniProt P10635); assay: Cytochrome P450 enzyme assay; assay type: in vitro ADME; details: human
CYP3A4 = CYP3A4 (Homo sapiens, UniProt P08684); assay: Cytochrome P450 enzyme assay; assay type: in vitro ADME; details: human
Adenosine A1 = Adenosine A1 (Homo sapiens, UniProt P30542); assay: Radioligand binding assay; details: read-out: Percent inhibition of specific radioligand binding
Sequence of Adenosine A1 (P30542 whole entry): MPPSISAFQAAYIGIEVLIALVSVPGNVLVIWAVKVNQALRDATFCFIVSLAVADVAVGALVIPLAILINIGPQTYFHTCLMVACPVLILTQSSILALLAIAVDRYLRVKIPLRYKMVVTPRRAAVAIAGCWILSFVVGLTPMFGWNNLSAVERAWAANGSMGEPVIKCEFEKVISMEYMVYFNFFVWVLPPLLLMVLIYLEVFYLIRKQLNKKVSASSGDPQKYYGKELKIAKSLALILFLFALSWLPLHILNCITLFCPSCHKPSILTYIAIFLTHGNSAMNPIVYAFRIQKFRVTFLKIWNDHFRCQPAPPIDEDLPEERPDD

Adrenergic β1 = Adrenergic β1 (Homo sapiens, UniProt P08588); assay: Radioligand binding assay; details: read-out: Percent inhibition of specific radioligand binding
[1] = target: Androgen (Testosterone) AR (Rattus norvegicus, UniProt P15207); assay: Radioligand binding assay; details: read-out: Percent inhibition of specific radioligand binding
Sequence of Androgen (Testosterone) AR (P15207 whole entry S389L): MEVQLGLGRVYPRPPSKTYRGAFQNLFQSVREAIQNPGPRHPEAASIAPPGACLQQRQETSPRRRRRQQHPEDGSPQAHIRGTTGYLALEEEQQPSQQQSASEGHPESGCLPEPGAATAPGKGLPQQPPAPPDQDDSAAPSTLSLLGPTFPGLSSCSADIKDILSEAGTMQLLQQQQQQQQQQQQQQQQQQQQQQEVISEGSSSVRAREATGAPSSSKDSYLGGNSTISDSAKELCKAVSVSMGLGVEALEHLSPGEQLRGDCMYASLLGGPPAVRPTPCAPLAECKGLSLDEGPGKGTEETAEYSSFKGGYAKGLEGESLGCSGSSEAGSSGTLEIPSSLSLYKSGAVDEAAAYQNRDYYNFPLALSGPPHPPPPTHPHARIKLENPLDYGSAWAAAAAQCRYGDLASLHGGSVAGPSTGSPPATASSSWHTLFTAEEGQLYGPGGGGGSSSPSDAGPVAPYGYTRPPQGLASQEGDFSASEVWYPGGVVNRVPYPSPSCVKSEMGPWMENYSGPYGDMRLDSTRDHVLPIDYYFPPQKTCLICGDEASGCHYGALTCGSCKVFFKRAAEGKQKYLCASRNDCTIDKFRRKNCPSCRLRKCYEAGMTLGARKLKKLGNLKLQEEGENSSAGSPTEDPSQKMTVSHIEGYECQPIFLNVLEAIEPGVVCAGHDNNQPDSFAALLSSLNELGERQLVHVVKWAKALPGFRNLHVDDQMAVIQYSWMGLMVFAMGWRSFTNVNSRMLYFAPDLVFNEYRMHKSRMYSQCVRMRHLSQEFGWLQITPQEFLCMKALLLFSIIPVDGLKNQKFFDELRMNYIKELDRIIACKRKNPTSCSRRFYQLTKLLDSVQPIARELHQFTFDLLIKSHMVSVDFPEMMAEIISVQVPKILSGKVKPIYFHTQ

Bradykinin B1 = Bradykinin B1 (Homo sapiens, UniProt P46663); assay: Radioligand binding assay; details: read-out: Percent inhibition of specific radioligand binding
Bradykinin B2 = Bradykinin B2 (Homo sapiens, UniProt P30411); assay: Radioligand binding assay; details: read-out: Percent inhibition of specific radioligand binding
Sequence of Bradykinin B2 (P30411 whole entry): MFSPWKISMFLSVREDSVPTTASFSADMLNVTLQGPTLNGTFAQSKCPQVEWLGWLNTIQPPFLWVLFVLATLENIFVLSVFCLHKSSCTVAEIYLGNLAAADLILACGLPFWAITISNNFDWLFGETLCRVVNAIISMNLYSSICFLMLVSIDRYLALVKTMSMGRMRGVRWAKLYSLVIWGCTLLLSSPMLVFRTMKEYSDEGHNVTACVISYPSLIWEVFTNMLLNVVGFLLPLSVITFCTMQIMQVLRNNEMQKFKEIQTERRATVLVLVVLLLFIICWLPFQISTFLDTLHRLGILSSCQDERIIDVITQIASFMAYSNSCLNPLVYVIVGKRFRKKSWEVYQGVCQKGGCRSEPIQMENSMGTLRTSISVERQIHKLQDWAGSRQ

[2] = tested on: Calcium Channel L-Type, Benzothiazepine; assay: Radioligand binding assay; parameters: species or system rat; details: 10 μM; 4 °C, 180 min
[3] = tested on: Calcium Channel L-Type, Dihydropyridine; assay: Radioligand binding assay; parameters: species or system rat; details: 10 μM; 25 °C, 90 min
Calcium Channel N-Type = Calcium Channel N-Type (Rattus norvegicus, UniProt Q02294); assay: Radioligand binding assay; details: read-out: Percent inhibition of specific radioligand binding
Cannabinoid CB1 = Cannabinoid CB1 (Homo sapiens, UniProt P21554); assay: Radioligand binding assay; details: read-out: Percent inhibition of specific radioligand binding
Dopamine D1 = Dopamine D1 (Homo sapiens, UniProt P21728); assay: Radioligand binding assay; details: read-out: Percent inhibition of specific radioligand binding
Dopamine D4.2 = Dopamine D4.2 (Homo sapiens, UniProt P21917, DEL265-296); assay: Radioligand binding assay; details: read-out: Percent inhibition of specific radioligand binding
Endothelin ETB = Endothelin ETB (Homo sapiens, UniProt P24530); assay: Radioligand binding assay; details: read-out: Percent inhibition of specific radioligand binding
[4] = target: Epidermal Growth Factor (EG F) (Homo sapiens, UniProt P00533); assay: Radioligand binding assay; details: read-out: Percent inhibition of specific radioligand binding
Sequence of Epidermal Growth Factor (EG F) (P00533 25-1210): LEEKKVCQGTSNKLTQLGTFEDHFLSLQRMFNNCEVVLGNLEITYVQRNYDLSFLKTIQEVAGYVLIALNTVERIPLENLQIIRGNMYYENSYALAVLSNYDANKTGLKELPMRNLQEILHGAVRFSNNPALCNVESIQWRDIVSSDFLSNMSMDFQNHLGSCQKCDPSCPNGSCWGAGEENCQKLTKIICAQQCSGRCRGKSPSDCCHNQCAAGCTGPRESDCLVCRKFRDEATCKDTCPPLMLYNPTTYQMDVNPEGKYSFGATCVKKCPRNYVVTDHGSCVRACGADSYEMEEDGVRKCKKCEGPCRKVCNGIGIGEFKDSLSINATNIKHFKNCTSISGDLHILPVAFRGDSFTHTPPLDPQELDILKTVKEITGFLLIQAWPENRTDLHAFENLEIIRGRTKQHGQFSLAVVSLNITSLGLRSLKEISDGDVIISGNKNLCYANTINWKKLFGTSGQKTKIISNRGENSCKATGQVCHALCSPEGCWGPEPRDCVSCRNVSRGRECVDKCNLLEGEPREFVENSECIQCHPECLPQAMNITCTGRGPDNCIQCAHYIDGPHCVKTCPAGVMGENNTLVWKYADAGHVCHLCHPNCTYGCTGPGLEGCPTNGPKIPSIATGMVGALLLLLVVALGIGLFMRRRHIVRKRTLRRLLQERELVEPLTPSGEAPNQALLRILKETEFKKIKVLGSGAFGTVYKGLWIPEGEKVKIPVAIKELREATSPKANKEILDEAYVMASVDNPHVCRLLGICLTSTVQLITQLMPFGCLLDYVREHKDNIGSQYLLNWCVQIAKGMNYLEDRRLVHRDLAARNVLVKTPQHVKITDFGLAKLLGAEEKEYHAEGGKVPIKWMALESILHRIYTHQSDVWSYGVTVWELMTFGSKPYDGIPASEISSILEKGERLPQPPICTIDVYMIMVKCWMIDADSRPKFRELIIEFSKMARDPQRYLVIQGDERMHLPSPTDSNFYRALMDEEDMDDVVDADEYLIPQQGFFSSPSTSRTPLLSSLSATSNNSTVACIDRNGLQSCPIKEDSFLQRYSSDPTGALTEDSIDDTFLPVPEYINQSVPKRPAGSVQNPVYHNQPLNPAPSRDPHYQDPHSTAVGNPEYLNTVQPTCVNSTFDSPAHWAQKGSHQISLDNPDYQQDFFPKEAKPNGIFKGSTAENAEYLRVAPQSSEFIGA

Estrogen ERa = Estrogen ERa (Homo sapiens, UniProt P03372); assay: Radioligand binding assay; details: read-out: Percent inhibition of specific radioligand binding
[5] = tested on: GABAA, Flunitrazepam, Cent ral; assay: Radioligand binding assay; parameters: species or system rat; details: 10 μM; 25 °C, 120 min
GABAA, Muscimol, Central = assay: Radioligand binding assay; parameters: species or system rat; details: 10 μM; 4 °C, 10 min
Glucocorticoid = Glucocorticoid (Homo sapiens, UniProt P04150); assay: Radioligand binding assay; details: read-out: Percent inhibition of specific radioligand binding
Glutamate, Kainate = assay: Radioligand binding assay; parameters: species or system rat; details: 10 μM; 4 °C, 60 min
Glutamate, NMDA, Agonism = assay: Radioligand binding assay; parameters: species or system rat; details: 10 μM; 4 °C, 20 min
Glutamate, NMDA, Glycine = Glutamate, NMDA, Glycine (Rattus norvegicus, UniProt P35439); assay: Radioligand binding assay; details: read-out: Percent inhibition of specific radioligand binding
Sequence of Glutamate, NMDA, Glycine (P35439 394-800 limits assumed): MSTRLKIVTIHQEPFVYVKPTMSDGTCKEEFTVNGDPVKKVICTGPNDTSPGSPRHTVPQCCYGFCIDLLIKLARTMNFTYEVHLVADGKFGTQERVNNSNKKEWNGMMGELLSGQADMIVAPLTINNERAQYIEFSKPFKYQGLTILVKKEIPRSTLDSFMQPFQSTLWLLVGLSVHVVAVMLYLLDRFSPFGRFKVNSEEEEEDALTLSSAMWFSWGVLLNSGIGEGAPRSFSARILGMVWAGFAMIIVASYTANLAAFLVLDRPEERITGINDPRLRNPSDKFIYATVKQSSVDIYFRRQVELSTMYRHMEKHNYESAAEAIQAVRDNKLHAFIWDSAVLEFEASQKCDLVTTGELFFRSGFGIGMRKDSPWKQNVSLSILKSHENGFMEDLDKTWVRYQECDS

[6] = tested on: Glutamate, NMDA, Phencyclidine; assay: Radioligand binding assay; parameters: species or system rat; details: 10 μM; 25 °C, 45 min
Histamine H3 = Histamine H3 (Homo sapiens, UniProt Q9Y5N1); assay: Radioligand binding assay; details: read-out: Percent inhibition of specific radioligand binding
Imidazoline I2, Central = assay: Radioligand binding assay; parameters: species or system rat; details: 10 μM; 25 °C, 30 min
Interleukin IL-1 = Interleukin IL-1 (Mus musculus, UniProt P13504); assay: Radioligand binding assay; details: read-out: Percent inhibition of specific radioligand binding
[7] = target: Leukotriene, Cysteinyl CysLT 1 (Homo sapiens, UniProt Q9Y271); assay: Radioligand binding assay; details: read-out: Percent inhibition of specific radioligand binding
Muscarinic M2 = Muscarinic M2 (Homo sapiens, UniProt P08172); assay: Radioligand binding assay; details: read-out: Percent inhibition of specific radioligand binding
Neuropeptide Y Y2 = Neuropeptide Y Y2 (Homo sapiens, UniProt P49146); assay: Radioligand binding assay; details: read-out: Percent inhibition of specific radioligand binding
Nicotinic Acetylcholine = assay: Radioligand binding assay; parameters: species or system human; details: 10 μM; 25 °C, 60 min
[8] = target: Nicotinic Acetylcholine a1, Bungarotoxin (Homo sapiens, UniProt P02708+P07510+Q07001); assay: Radioligand binding assay; details: read-out: Percent inhibition of specific radioligand binding
Opiate 51 (OP1, DOP) = Opiate 51 (OP1, DOP) (Homo sapiens, UniProt P41143); assay: Radioligand binding assay; details: read-out: Percent inhibition of specific radioligand binding
Sequence of Opiate 51 (OP1, DOP) (P41143 whole entry): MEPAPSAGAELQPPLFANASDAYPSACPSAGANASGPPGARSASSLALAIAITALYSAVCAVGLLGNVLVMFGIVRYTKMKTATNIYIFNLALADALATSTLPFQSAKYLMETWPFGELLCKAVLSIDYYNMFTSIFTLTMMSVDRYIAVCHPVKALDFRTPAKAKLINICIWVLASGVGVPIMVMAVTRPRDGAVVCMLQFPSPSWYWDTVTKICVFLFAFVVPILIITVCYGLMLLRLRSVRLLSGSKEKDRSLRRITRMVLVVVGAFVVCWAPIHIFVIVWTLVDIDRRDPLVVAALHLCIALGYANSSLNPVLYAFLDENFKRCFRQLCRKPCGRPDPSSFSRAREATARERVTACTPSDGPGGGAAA

Phorbol Ester = assay: Radioligand binding assay; parameters: species or system mouse; details: 10 μM; 25 °C, 60 min
[9] = target: Platelet Activating Factor (PA F) (Homo sapiens, UniProt P25105); assay: Radioligand binding assay; details: read-out: Percent inhibition of specific radioligand binding
Sequence of Platelet Activating Factor (PA F) (P25105 whole entry): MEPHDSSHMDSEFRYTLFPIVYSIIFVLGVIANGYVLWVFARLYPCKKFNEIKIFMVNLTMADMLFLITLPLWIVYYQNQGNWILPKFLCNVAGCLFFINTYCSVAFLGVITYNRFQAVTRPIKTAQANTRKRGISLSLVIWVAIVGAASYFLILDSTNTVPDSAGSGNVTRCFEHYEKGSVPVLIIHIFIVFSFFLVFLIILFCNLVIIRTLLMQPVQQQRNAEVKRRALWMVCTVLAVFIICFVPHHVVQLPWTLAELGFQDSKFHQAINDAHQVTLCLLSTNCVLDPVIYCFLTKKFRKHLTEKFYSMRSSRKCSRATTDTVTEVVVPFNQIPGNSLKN

Potassium Channel [KATP] = assay: Radioligand binding assay; parameters: species or system human; details: 10 μM; 25 °C, 120 min
hERG potassium channel = hERG potassium channel (Homo sapiens, UniProt Q12809); assay: Radioligand binding assay; details: human
Prostanoid EP4 = Prostanoid EP4 (Homo sapiens, UniProt P35408); assay: Radioligand binding assay; details: read-out: Percent inhibition of specific radioligand binding
Purinergic P2x = assay: Radioligand binding assay; parameters: species or system rabbit; details: 10 μM; 25 °C, 30 min
Purinergic P2, = assay: Radioligand binding assay; parameters: species or system rat; details: 10 μM; 25 °C, 60 min
[10] = target: Serotonin (5-Hydroxytryptam ine) 5-HT1A (Homo sapiens, UniProt P08908); assay: Radioligand binding assay; details: read-out: Percent inhibition of specific radioligand binding
[11] = target: Serotonin (5-Hydroxytryptam ine) 5-HT2B (Homo sapiens, UniProt P41595); assay: Radioligand binding assay; details: read-out: Percent inhibition of specific radioligand binding
Thyroid Hormone = assay: Radioligand binding assay; parameters: species or system rat; details: 10 μM; 4 °C, 18 hrs
Transporter, GABA = Transporter, GABA (Rattus norvegicus, UniProt P23978); assay: Radioligand binding assay; details: read-out: Percent inhibition of specific radioligand binding
[12] = target: Transporter, Norepinephrine (NET) (Homo sapiens, UniProt P23975); assay: Radioligand binding assay; details: read-out: Percent inhibition of specific radioligand binding
[13] = assay type: in vivo, mice; details: for Body weight change after a single intravenous injection of the MTD: 150 mg/kg TMX-202 or 15 mg/kg IMQ i.v. (figure 4)
human PBMC = details: up to 1 μM; ref [24]; cited from earlier work
[14] = Serum drug concentration after topical skin application; details: C57BL/6, mouse, serum

Sequence of CYP2C19 (P33261 whole entry): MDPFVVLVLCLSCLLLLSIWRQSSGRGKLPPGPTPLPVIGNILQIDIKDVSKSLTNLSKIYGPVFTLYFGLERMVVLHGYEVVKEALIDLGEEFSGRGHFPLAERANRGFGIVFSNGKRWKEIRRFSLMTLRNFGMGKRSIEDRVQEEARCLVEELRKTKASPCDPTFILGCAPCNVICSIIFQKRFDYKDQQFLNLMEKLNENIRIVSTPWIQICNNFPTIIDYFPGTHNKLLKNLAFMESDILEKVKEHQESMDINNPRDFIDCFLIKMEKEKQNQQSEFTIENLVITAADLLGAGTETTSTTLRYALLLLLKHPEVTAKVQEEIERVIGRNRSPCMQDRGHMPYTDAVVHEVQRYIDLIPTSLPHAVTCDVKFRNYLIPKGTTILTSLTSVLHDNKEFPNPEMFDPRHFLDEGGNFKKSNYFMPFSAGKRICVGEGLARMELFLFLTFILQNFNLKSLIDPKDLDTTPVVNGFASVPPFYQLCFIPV

Structure (SMILES): CC(C)Cn1cnc2c(N)nc3ccccc3c21 [IMQ, imiquimod, reference compound]
- inhibition at 30 min, 10 µM (CYP1A2): 66%
- inhibition at 45 min, 10 µM (CYP2C19): 10%
- inhibition at 45 min, 10 µM (CYP2C9): 3%
- inhibition at 45 min, 10 µM (CYP2D6): 29%
- inhibition at 30 min, 10 µM (CYP3A4): 1%
- inhibition at 10 µM (Adenosine A1): 50%
- inhibition at 10 µM (Adrenergic β1): 19%
- inhibition at 10 µM [1]: 7%
- inhibition at 10 µM (Bradykinin B1): 4%
- inhibition at 10 µM (Bradykinin B2): -1%
- Percent inhibition of specific radioligand binding [2]: 4%
- Percent inhibition of specific radioligand binding [3]: −14%
- inhibition at 10 µM (Calcium Channel N-Type): 2%
- inhibition at 10 µM (Cannabinoid CB1): -4%
- inhibition at 10 µM (Dopamine D1): 66%
- inhibition at 10 µM (Dopamine D4.2): 2%
- inhibition at 10 µM (Endothelin ETB): 0%
- inhibition at 10 µM [4]: -1%
- inhibition at 10 µM (Estrogen ERa): 0%
- Percent inhibition of specific radioligand binding [5]: 37%
- Percent inhibition of specific radioligand binding (GABAA, Muscimol, Central): 19%
- inhibition at 10 µM (Glucocorticoid): -2%
- Percent inhibition of specific radioligand binding (Glutamate, Kainate): −8%
- Percent inhibition of specific radioligand binding (Glutamate, NMDA, Agonism): 2%
- inhibition at 10 µM (Glutamate, NMDA, Glycine): -6%
- Percent inhibition of specific radioligand binding [6]: 4%
- inhibition at 10 µM (Histamine H3): 4%
- Percent inhibition of specific radioligand binding (Imidazoline I2, Central): 57%
- inhibition at 10 µM (Interleukin IL-1): 5%
- inhibition at 10 µM [7]: 10%
- inhibition at 10 µM (Muscarinic M2): 3%
- inhibition at 10 µM (Neuropeptide Y Y2): 6%
- Percent inhibition of specific radioligand binding (Nicotinic Acetylcholine): 3%
- inhibition at 10 µM [8]: 7%
- inhibition at 10 µM (Opiate 51 (OP1, DOP)): 5%
- Percent inhibition of specific radioligand binding (Phorbol Ester): 21%
- inhibition at 10 µM [9]: 2%
- Percent inhibition of specific radioligand binding (Potassium Channel [KATP]): −5%
- inhibition at 60 min, 10 µM (hERG potassium channel): 45%
- inhibition at 10 µM (Prostanoid EP4): 6%
- Percent inhibition of specific radioligand binding (Purinergic P2x): −7%
- Percent inhibition of specific radioligand binding (Purinergic P2,): 10%
- inhibition at 10 µM [10]: 19%
- inhibition at 10 µM [11]: 45%
- Percent inhibition of specific radioligand binding (Thyroid Hormone): −5%
- inhibition at 10 µM (Transporter, GABA): 2%
- inhibition at 10 µM [12]: 30%
- MTD at 8 days ([13]; C57BL/6, mouse, in vivo, iv): 15 mg/kg
- MTD (molar) ([13]; C57BL/6 mice, intravenous administration): approximately 62.5 μmoles/kg
- Body weight change after a single intravenous injection of the MTD ([13]; Tlr7−/− or Myd88−/− mice): did not result in body weight changes
- Body weight change after a single intravenous injection of the MTD ([13]; WT mice): did not result in body weight changes
- IFN-γ secretion in human PBMC (human PBMC): does not stimulate IFN-γ secretion
- concentration at 1 h [14]: 0.139 ± 0.0612 ng/mL
